Test results reported in ChEMBL document CHEMBL1201862, “PubChem BioAssay data set” (2004).
Activity calls are given as the source filed them.

What was measured:
[1] = Luminescence Cell-Based Dose Response to Identify Activators of 5'UTR Stem-Loop Driven Prion Protein mRNA Translation in H4-C Neuroglioblastoma Cells. [Related pubchem assays: 1829 (Project Summary), 1814 (Primary HTS)]; format: functional
[2] = Luminescence Cell-Based Dose Response HTS to Identify Activators of Luciferase Translation or Activity in H4 […] Cells. [Related pubchem assays: 1829 (Project Summary), 1814 (Primary HTS)]; format: functional
H4 = experiment: Luminescence Cell-Based Dose Response HTS to Identify Activators of 5'UTR Stem-Loop Driven Prion Protein mRNA Translation in H4 Neuroglioblastoma Cells. [Related pubchem assays: 1829 (Project Summary), 1814 (Primary HTS)]; format: functional; details: Homo sapiens
[3] = Luminescence Cell-Based Dose Response to Identify Activators of Luciferase Translation or Activity in H4-C Neuroglioblastoma Cells. [Related pubchem assays: 1829 (Project Summary), 1814 (Primary HTS)]; format: functional
[4] = Luminescence Cell-Based Dose Confirmation to Identify Activators of 5'UTR Stem-Loop Driven Alpha-Synuclein mRNA Translation in H4 Neuroglioblastoma Cells. [Related pubchem assays: 1829 (Project Summary), 1814 (Primary HTS)]; format: functional
[5] = growth inhibition of yeast DHODH-expressing 3D7 parasites – SYBR Green, dry powder samples, dose response (AID 1159570); format: functional, cell-based;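 also: parasite growth measured after 72 hours of compound exposure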
[6] = toxicity to human HepG2 hepatoma cells – cell-based, plate reader, dry powder samples, cytotoxicity control, dose response (AID 1159569); format: functional;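 also: inhibitor potency with signal falling toward the positive control level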
[7] = Dd2 malaria parasite growth inhibition potency – SYBR Green, dry powder samples, dose response (AID 1159566); format: functional, cell-based;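 also: potency for growth inhibition with lower SYBR green DNA signal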
[8] = growth inhibition of PfATP4-mutant resistant parasites – NITD609-resistant line, SYBR Green, dry powder, dose response (AID 1159571); format: functional, cell-based;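 also: parasites synchronized at ring stage by sorbitol before testing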
[9] = NIH-3T3 fibroblast cytotoxicity, dose response, cytotoxicity control, cell-based, fluorescence, Alamar Blue, secondary assay (AID 2327); format: functional;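 also: NIH-3T3 mouse fibroblasts cultured with fluconazole at 8 µg/mL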
Aminopeptidase N = target: T1, Aminopeptidase N (Plasmodium falciparum FcB1/Columbia, UniProt O96935); experiment: malaria alanyl aminopeptidase activity blockers – biochemical, fluorogenic H-Leu-NHMec substrate, 1536-well (AID 1445); set-up: species or system Plasmodium falciparum 3D7, 3D7
T1 sequence (O96935 whole entry): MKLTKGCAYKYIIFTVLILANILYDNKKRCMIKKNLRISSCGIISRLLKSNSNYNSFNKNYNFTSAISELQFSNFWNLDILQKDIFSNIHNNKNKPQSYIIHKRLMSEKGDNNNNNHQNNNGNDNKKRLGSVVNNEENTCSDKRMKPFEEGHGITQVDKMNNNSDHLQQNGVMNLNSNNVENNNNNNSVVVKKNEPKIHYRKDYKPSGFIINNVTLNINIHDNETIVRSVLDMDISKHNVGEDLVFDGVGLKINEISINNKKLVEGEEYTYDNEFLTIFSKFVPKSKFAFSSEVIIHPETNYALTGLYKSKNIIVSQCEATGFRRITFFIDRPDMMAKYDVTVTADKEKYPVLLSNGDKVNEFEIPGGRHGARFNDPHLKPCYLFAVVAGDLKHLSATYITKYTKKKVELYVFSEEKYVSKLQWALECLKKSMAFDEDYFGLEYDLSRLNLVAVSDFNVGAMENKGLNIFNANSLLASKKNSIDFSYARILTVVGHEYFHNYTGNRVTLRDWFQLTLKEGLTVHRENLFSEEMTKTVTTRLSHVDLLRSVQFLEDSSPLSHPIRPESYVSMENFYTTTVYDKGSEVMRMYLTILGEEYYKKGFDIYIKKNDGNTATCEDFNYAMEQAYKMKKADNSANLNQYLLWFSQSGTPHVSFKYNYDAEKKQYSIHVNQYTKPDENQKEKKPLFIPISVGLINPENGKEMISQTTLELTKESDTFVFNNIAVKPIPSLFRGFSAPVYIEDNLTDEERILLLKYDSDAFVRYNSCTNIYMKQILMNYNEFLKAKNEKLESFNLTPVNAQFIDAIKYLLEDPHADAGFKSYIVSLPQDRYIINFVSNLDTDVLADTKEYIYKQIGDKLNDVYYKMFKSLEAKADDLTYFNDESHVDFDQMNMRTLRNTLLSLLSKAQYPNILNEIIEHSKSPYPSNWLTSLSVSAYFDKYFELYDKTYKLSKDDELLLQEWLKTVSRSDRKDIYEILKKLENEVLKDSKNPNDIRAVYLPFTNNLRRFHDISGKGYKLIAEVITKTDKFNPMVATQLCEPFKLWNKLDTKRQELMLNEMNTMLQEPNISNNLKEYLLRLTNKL

[10] = fluconazole-exposed Candida albicans growth modulators – fluorescence, retest, confirmation (AID 2467); format: functional, cell-based
[11] = target: T2, Replicative DNA helicase DnaB (Mycobacterium tuberculosis, UniProt P9WMR3); experiment: DnaB intein splicing inhibitors, dose response, biochemical, cell-free fluorescence (AID 449749); format: functional
T2 sequence (P9WMR3 whole entry): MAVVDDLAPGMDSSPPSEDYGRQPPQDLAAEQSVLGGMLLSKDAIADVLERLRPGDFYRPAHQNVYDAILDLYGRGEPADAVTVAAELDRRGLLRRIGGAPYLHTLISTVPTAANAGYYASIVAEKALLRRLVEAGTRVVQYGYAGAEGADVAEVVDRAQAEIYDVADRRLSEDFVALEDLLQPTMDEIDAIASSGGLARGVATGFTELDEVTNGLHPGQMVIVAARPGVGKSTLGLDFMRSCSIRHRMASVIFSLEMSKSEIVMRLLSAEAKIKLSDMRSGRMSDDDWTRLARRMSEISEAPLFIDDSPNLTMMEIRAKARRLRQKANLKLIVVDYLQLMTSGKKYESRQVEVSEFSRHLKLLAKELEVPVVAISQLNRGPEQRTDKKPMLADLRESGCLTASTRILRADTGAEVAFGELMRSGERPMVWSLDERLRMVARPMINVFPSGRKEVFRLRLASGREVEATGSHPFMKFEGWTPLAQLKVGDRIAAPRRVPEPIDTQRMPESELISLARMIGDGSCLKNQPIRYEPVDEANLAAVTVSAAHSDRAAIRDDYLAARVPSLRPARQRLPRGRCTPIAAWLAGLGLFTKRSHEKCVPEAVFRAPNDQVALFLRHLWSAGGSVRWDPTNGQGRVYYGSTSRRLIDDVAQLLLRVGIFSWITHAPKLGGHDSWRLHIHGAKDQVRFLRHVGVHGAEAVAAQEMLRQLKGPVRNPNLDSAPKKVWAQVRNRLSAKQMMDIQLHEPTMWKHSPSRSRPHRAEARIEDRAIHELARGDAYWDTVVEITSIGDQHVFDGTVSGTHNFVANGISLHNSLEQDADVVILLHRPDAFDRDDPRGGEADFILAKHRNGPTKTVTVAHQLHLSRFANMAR

Protein RecA = target: T3, Protein RecA (Mycobacterium tuberculosis, UniProt P9WHJ3); experiment: Fluorescence Cell-Free Homogeneous Dose Retest to Identify Inhibitors of RecA-Intein Splicing Activity. [Related pubchem assays (depositor defined):AID2097, AID2223, AID489010, AID492950]; format: functional
T3 sequence (P9WHJ3 whole entry): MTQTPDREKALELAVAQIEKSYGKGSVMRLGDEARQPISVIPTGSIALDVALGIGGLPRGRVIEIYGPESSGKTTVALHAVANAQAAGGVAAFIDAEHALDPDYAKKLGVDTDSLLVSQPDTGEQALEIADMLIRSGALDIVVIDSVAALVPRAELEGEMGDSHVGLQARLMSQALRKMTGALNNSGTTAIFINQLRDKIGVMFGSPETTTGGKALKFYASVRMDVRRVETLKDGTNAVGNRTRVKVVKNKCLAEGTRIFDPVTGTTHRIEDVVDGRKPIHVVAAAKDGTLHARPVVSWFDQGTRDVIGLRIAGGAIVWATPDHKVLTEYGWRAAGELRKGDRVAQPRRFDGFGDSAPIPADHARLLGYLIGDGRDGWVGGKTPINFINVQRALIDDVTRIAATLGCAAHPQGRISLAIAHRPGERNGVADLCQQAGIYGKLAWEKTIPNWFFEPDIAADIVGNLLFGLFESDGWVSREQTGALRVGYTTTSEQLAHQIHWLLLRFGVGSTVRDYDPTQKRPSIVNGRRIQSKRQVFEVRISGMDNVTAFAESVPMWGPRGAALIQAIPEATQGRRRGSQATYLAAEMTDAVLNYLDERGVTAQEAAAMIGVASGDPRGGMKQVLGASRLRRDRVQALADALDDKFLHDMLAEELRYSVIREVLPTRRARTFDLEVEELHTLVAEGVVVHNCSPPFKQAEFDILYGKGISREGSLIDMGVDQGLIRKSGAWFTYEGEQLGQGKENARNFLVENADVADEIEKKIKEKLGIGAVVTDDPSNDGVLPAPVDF

Caspase-6 = target: T4, Caspase-6 (Homo sapiens, UniProt P55212); experiment: inhibition of CASP6 peptide cleavage – biochemical, VEID-R110 fluorescence, cherry-pick, dose response (AID 720632)
T4 sequence (P55212 whole entry): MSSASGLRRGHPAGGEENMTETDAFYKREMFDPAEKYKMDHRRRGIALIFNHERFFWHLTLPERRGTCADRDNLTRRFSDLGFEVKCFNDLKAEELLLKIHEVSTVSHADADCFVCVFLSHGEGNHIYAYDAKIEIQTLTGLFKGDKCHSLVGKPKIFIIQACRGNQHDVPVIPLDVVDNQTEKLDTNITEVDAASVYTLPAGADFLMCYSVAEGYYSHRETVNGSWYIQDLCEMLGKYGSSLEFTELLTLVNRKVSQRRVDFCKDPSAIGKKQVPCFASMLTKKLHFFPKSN

[12] = viability loss in THP-1 monocytes – THP-1 cells, cytotoxicity control for Vif-APOBEC3G degradation inhibitor project, dose response (AID 1117359); format: functional; details: THP-1
[13] = target: E3 ubiquitin-protein ligase Mdm2 (Homo sapiens, UniProt Q00987); experiment: MDM2-luc reporter signal enhancers, multi-concentration potency testing, MDM2 ubiquitin-protein ligase inhibitor program, whole-cell format, luminescence detection, 384-well microplate (AID 1394); format: functional;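 also: MDM2 E3 inhibitors raise luminescence so EC50 is for signal enhancement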
[14] = P. falciparum Dd2 growth inhibitors, dose response, SYBR Green, cherry-picked samples (AID 1159567); format: functional, cell-based

Sequence of E3 ubiquitin-protein ligase Mdm2 (Q00987 whole entry): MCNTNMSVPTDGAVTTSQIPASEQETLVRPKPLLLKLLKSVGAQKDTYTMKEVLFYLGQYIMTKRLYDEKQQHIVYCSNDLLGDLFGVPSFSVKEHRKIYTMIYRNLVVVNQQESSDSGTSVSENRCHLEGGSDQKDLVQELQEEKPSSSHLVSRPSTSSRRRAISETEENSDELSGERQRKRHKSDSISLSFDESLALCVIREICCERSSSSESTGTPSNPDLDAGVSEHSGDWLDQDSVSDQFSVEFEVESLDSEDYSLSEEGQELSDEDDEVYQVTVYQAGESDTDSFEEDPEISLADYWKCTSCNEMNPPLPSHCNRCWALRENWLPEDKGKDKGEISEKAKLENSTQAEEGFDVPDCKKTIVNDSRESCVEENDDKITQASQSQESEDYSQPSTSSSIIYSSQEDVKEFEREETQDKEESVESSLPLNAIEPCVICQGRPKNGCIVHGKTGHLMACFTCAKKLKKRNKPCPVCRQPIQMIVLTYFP

Compound: CC(C)(C)c1ccc(C(=O)NC(=S)N2CCOCC2)cc1
- EC50 [1]: 0.418 µM (active)
- EC50 [2]: 0.61 µM (active)
- EC50 (H4): 0.111 µM (active)
- EC50 [3]: > 12 µM (not active)
- EC50 [4]: 2.81 µM (active)

Compound: C[C@H]1CN([C@@H](C)CO)S(=O)(=O)c2ccc(C#Cc3ccncc3)cc2O[C@@H]1CN(C)S(=O)(=O)c1ccccc1
- AC50 [5]: 3 µM (active)
- AC50 [6]: > 100 µM (inactive)
- AC50 [7]: 4.05 µM (active)
- AC50 [8]: 3.53 µM (active)

Compound: Cc1ccc(C(=O)c2coc3cc([N+](=O)[O-])c(O)c([N+](=O)[O-])c23)cc1
- EC50 [9]: > 160 µM (inactive)
- IC50 (Aminopeptidase N): 32.1 µM (active)
- EC50 [10]: > 38 µM (not active)
- AC50 [11]: 24.4 µM (active)
- EC50 (Protein RecA): 9.46 µM (active)
- AC50 (Caspase-6): 28.8 µM (active)

Compound: Cc1ccc(NC(=O)C(=O)c2c(-c3ccccc3)cc3ccccn23)cc1S(=O)(=O)N1CCOCC1
- CC50 [12]: > 40 µM (active)

Compound: O=C(N/N=C\c1ccc(Cl)s1)c1cccs1
- EC50 [13]: 6.96 µM (not active)

Compound: Cc1nc2cc(NC(=O)CCS(=O)(=O)c3ccccc3)ccc2s1
- EC50 [1]: 0.312 µM (active)
- EC50 [2]: < 0.1 µM (inconclusive)
- EC50 [3]: 0.264 µM (active)
- EC50 [4]: 0.069 µM (active)

Compound: COc1ccc(C)cc1C1=Nc2ccccc2C1(C)C
- EC50 [13]: 15.4 µM (not active)

Compound: COc1ccc2c3c(n(C)c2c1)[C@H](CO)N(C(=O)Nc1ccc(F)cc1)CC31CCN(S(=O)(=O)c2cccc(F)c2)CC1
- AC50 [5]: 1.63 µM (active)
- AC50 [6]: > 100 µM (inactive)
- AC50 [14]: 1.19 µM (active)
- AC50 [7]: 0.951 µM (active)
- AC50 [8]: 1.56 µM (active)
